Experiments:
[1] = Inhibition of MERS-CoV -Mpro using Ac-Abu-Tle-Leu-Gln-ACC as substrate incubated for 2 hrs by FRET based assay; design: species or system Middle East respiratory syndrome-related coronavirus
Vero 76 = experiment: Cytotoxicity against African green monkey Vero 76 cells assessed as reduction in cell […] at 10 uM incubated for 24 hrs by cell titer glo luminescent assay; type: toxicity, cell-based; settings: chlorocebus sabaeus, vero 76, 24 h
[2] = molecular target: T1, Replicase polyprotein 1ab (Severe acute respiratory syndrome coronavirus 2, UniProt P0DTD1); experiment: Inhibition of recombinant his tagged SARS CoV-2 main protease expressed in Escherichia coli BL21 using Boc-Abu-Tle-Leu-Gln-AMC37 as fluorogenic substrate pre-incubated for 5 mins followed by substrate addition measured after 60 mins by FRET based assay
Calu-3 = experiment: Cytotoxicity against human Calu-3 cells assessed as reduction in cell […] at 10 uM incubated for 24 hrs by cell titer glo luminescent assay; type: toxicity, cell-based; settings: calu-3, 24 h
[3] = molecular target: T1, Replicase polyprotein 1ab; experiment: Inhibition of recombinant his tagged SARS CoV-2 main protease expressed in Escherichia coli BL21 assessed as inhibition constant using Boc-Abu-Tle-Leu-Gln-AMC37 as fluorogenic substrate pre-incubated for 5 mins followed by substrate addition measured after 60 mins by FRET based assay
SARS-CoV-2 [4] = experiment: microbe, parasite or virus in culture; settings: Severe acute respiratory syndrome coronavirus 2, Calu-3
[5] = Inhibition of recombinant SARS CoV-1 main protease expressed using MCA-AVLQSGFR-K(DNP)-K-NH2 as substrate incubated for 2 hrs by FRET based assay; design: species or system Severe acute respiratory syndrome-related coronavirus
[6] = tested on: Severe acute respiratory syndrome-related coronavirus; experiment: Inhibition of recombinant SARS CoV-1 main protease expressed using MCA-AVLQSGFR-K(DNP)-K-NH2 as substrate at 10 uM incubated for 2 hrs by FRET based assay
[7] = molecular target: Replicase polyprotein 1ab (Severe acute respiratory syndrome coronavirus 2) (UniProt P0DTD1); experiment: Inhibition of recombinant his tagged SARS CoV-2 main protease expressed in Escherichia coli BL21 using Boc-Abu-Tle-Leu-Gln-AMC37 as fluorogenic substrate at 10 uM pre-incubated for 5 mins followed by substrate addition measured after 60 mins by FRET based assay relative to control
[8] = molecular target: Replicase polyprotein 1ab (Severe acute respiratory syndrome coronavirus 2) (UniProt P0DTD1); experiment: Time dependent inhibition of recombinant his tagged SARS CoV-2 main protease expressed in Escherichia coli BL21 assessed as ratio of Kinact/Ki using MCA-AVLQSGFR-K(DNP)-K-NH2 as substrate pre-incubated for 5 mins followed by substrate addition measured after 60 mins by FRET based assay
[9] = molecular target: T1, Replicase polyprotein 1ab; experiment: Inhibition of full length SARS CoV-2 main protease expressed in Escherichia coli BL21 (DE3) expression system using Mca-AVLQSGFR-K(Dnp)K as substrate by fluorescence method
SARS-CoV-2 [10] = experiment: microbe, parasite or virus in culture; settings: Severe acute respiratory syndrome coronavirus 2, Vero 76
[11] = Stability of the compound assessed as glutathione reactivity by measuring reduction at pH 7.4 by HPLC/MS method; type: physicochemical; settings: buffer
[12] = molecular target: T1, Replicase polyprotein 1ab; experiment: Inhibition of SARS CoV-2 main protease

SMILES | IC50 [1] | Activity (Vero 76) | IC50 [2] | Activity (Calu-3) | Ki [3] | Ratio [8] | also measured
Cc1nnc(SC(=O)c2cccc3cc[nH]c23)s1 | 196 nM | Non-Toxic | 159 nM | Non-Toxic | 250 nM |  | EC50 (SARS-CoV-2 [4]): 437 nM; IC50 [5]: 2150 nM; inhibition [6]: > 50%
Cc1nnc(SC(=O)c2cc3ccccc3[nH]2)s1 |  |  | 624 nM |  |  |  | 
CCOc1nnc(SC(=O)c2cc3ccccc3[nH]2)s1 |  |  |  |  |  |  | inhibition [7]: 37%
Cc1nnc(SC(=O)c2ccc(-c3ccccc3)[nH]2)s1 |  |  | 235 nM |  | 605 nM | 5070 M⁻¹ s⁻¹ | 
O=C(Sc1ncccn1)c1cc2ccccc2[nH]1 | 303 nM | Non-Toxic | 11.4 nM | Non-Toxic | 14.1 nM |  | EC50 (SARS-CoV-2 [4]): 111 nM; IC50 [5]: 60 nM; inhibition [6]: > 50%
O=C(Sc1nc2ccccc2s1)c1ccc(-c2ccccc2)o1 |  |  | 166 nM |  | 612 nM | 515 M⁻¹ s⁻¹ | 
Cc1nnc(SC(=O)c2cc3ccccc3[nH]2)n1C(=O)c1cc2ccccc2[nH]1 |  |  | 281 nM |  | 77.3 nM | 12200 M⁻¹ s⁻¹ | 
O=C(Sc1ncccn1)c1cc2ccccc2s1 |  |  | 15.5 nM |  |  |  | 
Oc1ccc2ccccc2c1SSc1c(O)ccc2ccccc12 |  |  |  |  |  |  | IC50 [9]: 2350 nM
Cc1nnc(SC(=O)c2ccc3cc[nH]c3c2)s1 | 271 nM | Non-Toxic | 54.7 nM | Non-Toxic | 186 nM | 5850 M⁻¹ s⁻¹ | 
Cc1cc(C)nc(SC(=O)c2cc3ccccc3[nH]2)n1 |  |  | 2030 nM |  | 773 nM | 1790 M⁻¹ s⁻¹ | 
O=C(Sc1nc2ccccc2s1)c1cc2ccccc2[nH]1 |  | Non-Toxic | 117 nM | Non-Toxic | 72.6 nM |  | EC50 (SARS-CoV-2 [4]): 137 nM
O=C(Sc1ncccn1)c1ccc(-c2ccc(Br)cc2)s1 |  | Non-Toxic | 14.4 nM | Non-Toxic |  |  | 
O=C(Sc1nc2ccccc2s1)c1cc2ccccc2s1 |  |  | 190 nM |  | 161 nM | 2000 M⁻¹ s⁻¹ | 
O=C(Sc1nncs1)c1cc2ccccc2[nH]1 | 535 nM | Non-Toxic | 143 nM | Non-Toxic | 74.4 nM |  | EC50 (SARS-CoV-2 [4]): 562 nM; EC50 (SARS-CoV-2 [10]): 642 nM; IC50 [5]: 3210 nM; inhibition [6]: > 50%
Cc1nnc(SC(=O)c2ccc(Br)o2)s1 |  |  | 481 nM |  |  |  | 
COc1nnc(SC(=O)c2cc3ccccc3[nH]2)s1 | 503 nM | Non-Toxic | 147 nM | Non-Toxic | 84.4 nM |  | EC50 (SARS-CoV-2 [4]): 38.3 nM
Cc1ccnc(SC(=O)c2cc3ccccc3[nH]2)n1 | 1310 nM | Non-Toxic | 87.6 nM | Non-Toxic | 33.2 nM |  | EC50 (SARS-CoV-2 [4]): 734 nM; EC50 (SARS-CoV-2 [10]): 185 nM; IC50 [5]: 1520 nM; inhibition [6]: > 50%
Cc1nnc(SC(=O)c2cc3ccccc3[nH]2)o1 |  |  | 1220 nM |  | 119 nM | 3880 M⁻¹ s⁻¹ | 
CSc1nnc(SC(=O)c2cc3ccccc3[nH]2)s1 | 1130 nM | Non-Toxic | 91.4 nM | Non-Toxic | 43 nM | 11800 M⁻¹ s⁻¹ | 
O=C(NCCN1C(=O)C=CC1=O)c1cc2ccccc2[nH]1 |  |  |  |  |  |  | IC50 [9]: 2080 nM
Cc1nnc(SC(=O)c2ccc3ccccc3c2)s1 | 526 nM | Non-Toxic | 454 nM | Non-Toxic | 21.1 nM |  | EC50 (SARS-CoV-2 [4]): 45 nM; IC50 [5]: 1650 nM; inhibition [6]: > 50%
O=C(Sc1nnc(C(F)(F)F)s1)c1cc2ccccc2[nH]1 |  |  |  |  |  |  | inhibition [7]: 26%

SMILES | IC50 [1] | Activity (Vero 76) | IC50 [2] | Activity (Calu-3) | Ki [3] | Ratio [8] | also measured
CCC(CC)COC(=O)[C@H](C)N[P@](=O)(OC[C@H]1O[C@@](C#N)(c2ccc3c(N)ncnn23)[C@H](O)[C@@H]1O)Oc1ccccc1 |  | Non-Toxic |  | Non-Toxic |  |  | EC50 (SARS-CoV-2 [4]): 79.6 nM; EC50 (SARS-CoV-2 [10]): 2.63 nM
Cc1nnc(SC(=O)c2ccc(-c3ccccc3)o2)s1 |  | Non-Toxic | 34.4 nM | Non-Toxic |  |  | EC50 (SARS-CoV-2 [4]): 100 nM
O=C(Sc1nnc(C(F)(F)F)s1)c1ccc(C#Cc2ccccc2)o1 |  |  |  |  |  |  | inhibition [7]: 14%
Cc1nnc(SC(=O)c2cccc3[nH]ccc23)s1 | 486 nM | Non-Toxic | 60 nM | Non-Toxic |  |  | EC50 (SARS-CoV-2 [4]): 367 nM
Cc1nnc(SC(=O)c2cc3ccccc3n2C)s1 | 223 nM | Non-Toxic | 349 nM | Non-Toxic | 295 nM |  | EC50 (SARS-CoV-2 [4]): 659 nM; EC50 (SARS-CoV-2 [10]): 4.58 nM
CC(C)C[C@H](NC(=O)OCc1ccccc1)C(=O)N[C@H](C=O)CC1CCNC1=O (stereo partly drawn) | 78 nM |  |  |  |  |  | IC50 [5]: 44.6 nM
O=C(Sc1ncccn1)c1ccc(-c2ccccc2)s1 |  |  | 13.7 nM |  |  |  | 
Cc1nnc(SC(=O)c2ccc(C#Cc3ccccc3)o2)s1 | 378 nM | Non-Toxic | 250 nM | Non-Toxic | 34.4 nM | 5200 M⁻¹ s⁻¹ | IC50 [5]: 2760 nM; inhibition [6]: > 50%
O=C(Sc1nc2ccccc2s1)c1ccc2ccccc2n1 |  |  | 88.9 nM |  | 51 nM | 5450 M⁻¹ s⁻¹ | Stability [11]: Stable
O=C(Oc1cncc(Cl)c1)c1cccc2[nH]ccc12 |  | Non-Toxic |  | Non-Toxic |  |  | EC50 (SARS-CoV-2 [4]): 28.5 nM; EC50 (SARS-CoV-2 [10]): 9.59 nM
Cc1nnc(SC(=O)c2ccc3[nH]ccc3c2)s1 | 945 nM | Non-Toxic | 72.3 nM | Non-Toxic | 393 nM | 3370 M⁻¹ s⁻¹ | IC50 [5]: 7350 nM
O=C(Sc1ccc(Cl)cc1)c1cc2ccccc2[nH]1 |  |  |  |  |  |  | inhibition [7]: 4%
O=C(Sc1nc2ccccc2s1)c1ccc(-c2ccc(Br)cc2)o1 |  |  | 255 nM |  | 13 nM | 1490 M⁻¹ s⁻¹ | 
CCOc1ccc2cc(C(=O)Sc3nccc(C)n3)[nH]c2c1 |  |  |  |  |  |  | inhibition [7]: -8%
O=C(Sc1ccc(Cl)cc1Cl)c1cc2ccccc2[nH]1 |  |  |  |  |  |  | inhibition [7]: 9%
Cc1cc(C)nc(SC(=O)c2ccc(C#Cc3ccccc3)o2)n1 |  |  | 288 nM |  |  |  | 
O=C(Sc1ncccn1)c1ccc2ccccc2n1 | 613 nM | Non-Toxic | 20.6 nM | Non-Toxic |  |  | IC50 [5]: 253 nM; inhibition [6]: > 50%
O=C(Sc1ncccn1)c1ccc(-c2ccccc2)o1 | 79 nM | Non-Toxic | 18.1 nM | Non-Toxic |  |  | 
O=C(Sc1nc2ccccc2s1)c1ccc(-c2ccccc2)s1 |  |  | 125 nM |  | 42 nM | 2100 M⁻¹ s⁻¹ | 
Cc1nnc(SC(=O)c2cc3ccccc3o2)s1 |  |  | 316 nM |  | 35.7 nM | 5190 M⁻¹ s⁻¹ | 
COc1ccc2cc([C@H](C)C(=O)Sc3ncccn3)ccc2c1 |  |  | 551 nM |  | 21 nM | 33900 M⁻¹ s⁻¹ | 
S=C(SSC(=S)N1CCOCC1)N1CCOCC1 |  |  |  |  |  |  | IC50 [12]: 4030 nM
O=C(Sc1nc2ccccc2s1)c1cc2ccccc2o1 |  |  |  |  |  |  | inhibition [7]: 14%

From ChEMBL document CHEMBL5131566, “Small-Molecule Thioesters as SARS-CoV-2 Main Protease Inhibitors: Enzyme Inhibition, Structure-Activity Relationships, Antiviral Activity, and X-ray Structure Determination” (J Med Chem, 2022)
